Data reported in US12723063B2, “GIPR-agonist compounds” (Eli Lilly and Company, priority 2019, dated 2026).
*1 amine or outer side, *2 acyl side, *3 side chain or, on linkers, in order; H or OH if unused. Where a SMILES comes first, the peptide text is derived from it. Side-chain parts run from the residue outwards. [ ]: non-standard residue; d: D form. The star is where a group is joined. C20 diacid = O=C(O)CCCCCCCCCCCCCCCCCCC(=O)*; C18 diacid = O=C(O)CCCCCCCCCCCCCCCCC(=O)*; αMePhe(2-F) = C[C@](N)(Cc1ccccc1F)C(=O)O; γGlu = O=C(O)[C@H](CCC(=O)[*:2])N[*:1]; αMeF = C[C@](N)(Cc1ccccc1)C(=O)O; 4Pal = N[C@@H](Cc1ccncc1)C(=O)O; αMeL = CC(C)C[C@](C)(N)C(=O)O; AEEA = NCCOCCOCC(=O)O; Aib = CC(C)(N)C(=O)O

How the values were obtained:
[1] = target: T1, human GLP-1R (Homo sapiens, UniProt P43220); assay: [125I]-GLP-1 binding, SPA with WGA beads, 0.1% bacitracin; settings: geometric mean, read-out: hGLP1R Ki
T1 construct: expressed in transfected cells; crude membranes
In short: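 Binding buffer was 25 mM HEPES pH 7.4 with 2.5 mM CaCl2, 1 mM MgCl2, 0.1% (w/v) bacitracin, 0.003% Tween-20 and EDTA-free protease inhibitors. Four-parameter regression gave IC50, converted to Ki (geometric mean, SEM, n independent days).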

[2] = target: T2, human GIPR (Homo sapiens, UniProt P48546); assay: [125I]-GIP binding, SPA with WGA beads, 0.1% bacitracin; settings: geometric mean, read-out: hGIPR Ki
T2 construct: expressed in transfected cells; crude membranes
T2 sequence (P48546 22-466): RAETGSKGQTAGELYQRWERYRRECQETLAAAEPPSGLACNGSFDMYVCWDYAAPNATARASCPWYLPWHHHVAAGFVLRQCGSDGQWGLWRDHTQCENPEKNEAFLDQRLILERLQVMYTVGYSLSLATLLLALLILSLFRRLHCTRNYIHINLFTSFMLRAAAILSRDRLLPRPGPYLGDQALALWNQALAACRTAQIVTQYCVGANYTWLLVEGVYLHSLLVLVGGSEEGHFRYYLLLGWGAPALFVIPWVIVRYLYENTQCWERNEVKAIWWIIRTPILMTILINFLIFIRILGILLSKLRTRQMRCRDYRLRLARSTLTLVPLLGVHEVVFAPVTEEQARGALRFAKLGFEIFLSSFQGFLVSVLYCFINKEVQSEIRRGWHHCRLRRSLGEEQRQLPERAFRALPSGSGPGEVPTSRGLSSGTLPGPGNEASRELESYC
In short: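 Ki values are geometric means (SEM, n independent days), derived from four-parameter nonlinear regression of IC50. Membranes came from hGIPR-expressing CHO cells.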

[3] = target: T3, human GcgR (Homo sapiens, UniProt P47871); assay: [125I]-Glucagon binding, SPA with WGA beads, 0.1% bacitracin; settings: geometric mean, read-out: hGcgR Ki
T3 construct: expressed in transfected cells; crude membranes
In short: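 SPA competition binding with WGA beads on crude membranes from HEK293 cells stably expressing hGcgR. Buffer: 25 mM HEPES pH 7.4, 2.5 mM CaCl2, 1 mM MgCl2, 0.1% bacitracin, 0.003% Tween-20; 10-point 3-fold dilutions, NSB with 1 μM Gcg.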

T1 sequence (P43220 24-463): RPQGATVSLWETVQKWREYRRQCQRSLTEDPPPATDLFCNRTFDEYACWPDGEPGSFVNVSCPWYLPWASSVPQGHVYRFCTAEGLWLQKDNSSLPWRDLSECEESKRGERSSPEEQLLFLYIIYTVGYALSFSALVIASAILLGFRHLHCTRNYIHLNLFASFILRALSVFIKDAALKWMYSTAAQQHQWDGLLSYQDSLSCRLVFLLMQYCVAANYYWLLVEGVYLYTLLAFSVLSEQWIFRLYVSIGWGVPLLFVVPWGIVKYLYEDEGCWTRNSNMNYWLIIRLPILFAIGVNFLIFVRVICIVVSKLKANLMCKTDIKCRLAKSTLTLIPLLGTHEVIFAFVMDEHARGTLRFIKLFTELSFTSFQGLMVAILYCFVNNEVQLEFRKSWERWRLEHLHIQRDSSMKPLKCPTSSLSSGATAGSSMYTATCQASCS
T3 sequence (P47871 26-477): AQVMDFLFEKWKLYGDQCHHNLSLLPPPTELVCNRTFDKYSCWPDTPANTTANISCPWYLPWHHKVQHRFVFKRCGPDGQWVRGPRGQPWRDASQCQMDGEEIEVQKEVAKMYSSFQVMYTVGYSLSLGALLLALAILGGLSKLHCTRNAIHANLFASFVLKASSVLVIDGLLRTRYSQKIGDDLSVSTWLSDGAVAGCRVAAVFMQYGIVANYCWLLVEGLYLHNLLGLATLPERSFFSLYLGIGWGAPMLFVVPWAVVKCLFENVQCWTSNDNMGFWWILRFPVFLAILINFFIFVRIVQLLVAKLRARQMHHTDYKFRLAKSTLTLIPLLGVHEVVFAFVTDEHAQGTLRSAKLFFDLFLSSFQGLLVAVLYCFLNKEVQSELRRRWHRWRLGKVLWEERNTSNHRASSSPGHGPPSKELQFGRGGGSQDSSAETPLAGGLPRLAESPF

Row | SMILES | Ki [1] [nM] | Ki [2] [nM] | Ki [3] [nM]
1 | CC[C@H](C)[C@H](NC(=O)[C@H](CO)NC(=O)[C@H](Cc1ccc(O)cc1)NC(=O)[C@H](CC(=O)O)NC(=O)[C@H](CO)NC(=O)[C@@H](NC(=O)[C@](C)(Cc1ccccc1F)NC(=O)[C@@H](NC(=O)CNC(=O)[C@H](CCC(=O)O)NC(=O)C(C)(C)NC(=O)[C@@H](N)Cc1ccc(O)cc1)[C@@H](C)O)[C@@H](C)CC)C(=O)N[C@@H](C)C(=O)N[C@@H](CC(C)C)C(=O)N[C@@H](CC(=O)O)C(=O)N[C@@H](CCCCN)C(=O)N[C@@H](CCCCNC(=O)COCCOCCNC(=O)COCCOCCNC(=O)CC[C@H](NC(=O)CCCCCCCCCCCCCCCCCCC(=O)O)C(=O)O)C(=O)N[C@@H](Cc1c[nH]cn1)C(=O)N[C@@H](CCC(N)=O)C(=O)NC(C)(C)C(=O)N[C@@H](CC(=O)O)C(=O)N[C@@H](Cc1ccccc1)C(=O)N[C@H](C(=O)N[C@@H](CCC(=O)O)C(=O)N[C@@H](Cc1ccc(O)cc1)C(=O)N[C@@H](CC(C)C)C(=O)N[C@@H](CC(C)C)C(=O)N[C@@H](CCC(=O)O)C(=O)N[C@H](C(=O)NCC(=O)N1CCC[C@H]1C(=O)N[C@@H](CO)C(=O)N[C@@H](CO)C(=O)NCC(=O)N[C@@H](C)C(=O)N1CCC[C@H]1C(=O)N1CCC[C@H]1C(=O)N1CCC[C@H]1C(=O)N[C@@H](CO)C(N)=O)[C@@H](C)O)C(C)C [Example 36] (H-Y[Aib]EGT[αMePhe(2-F)]ISDYSIALDKK([AEEA-AEEA-γGlu-C20 diacid])HQ[Aib]DFVEYLLETGPSSGAPPPS-NH2) | 393 | 0.0683 | 201
2 | CC[C@H](C)[C@H](NC(=O)[C@H](Cc1ccccc1)NC(=O)[C@@H](NC(=O)CNC(=O)[C@H](CCC(=O)O)NC(=O)C(C)(C)NC(=O)[C@@H](N)Cc1ccc(O)cc1)[C@@H](C)O)C(=O)N[C@@H](CO)C(=O)N[C@@H](CC(=O)O)C(=O)N[C@@H](Cc1ccc(O)cc1)C(=O)N[C@@H](CO)C(=O)N[C@H](C(=O)N[C@@](C)(CC(C)C)C(=O)N[C@@H](CC(C)C)C(=O)N[C@@H](CC(=O)O)C(=O)N[C@@H](CCCCN)C(=O)N[C@@H](CCCCNC(=O)COCCOCCNC(=O)COCCOCCNC(=O)CC[C@H](NC(=O)CCCCCCCCCCCCCCCCCCC(=O)O)C(=O)O)C(=O)N[C@@H](Cc1c[nH]cn1)C(=O)N[C@@H](CCC(N)=O)C(=O)NC(C)(C)C(=O)N[C@@H](CC(=O)O)C(=O)N[C@@H](Cc1ccccc1)C(=O)N[C@H](C(=O)N[C@@H](CCC(=O)O)C(=O)N[C@@H](Cc1ccncc1)C(=O)N[C@@H](CC(C)C)C(=O)N[C@@H](CC(C)C)C(=O)N[C@@H](CCC(=O)O)C(=O)N[C@@H](CCC(N)=O)C(=O)NCC(=O)N1CCC[C@H]1C(=O)N[C@@H](CO)C(=O)N[C@@H](CO)C(=O)NCC(=O)N[C@@H](C)C(=O)N1CCC[C@H]1C(=O)N1CCC[C@H]1C(=O)N1CCC[C@H]1C(=O)N[C@@H](CO)C(N)=O)C(C)C)[C@@H](C)CC [Example 46] (H-Y[Aib]EGTFISDYSI[αMeL]LDKK([AEEA-AEEA-γGlu-C20 diacid])HQ[Aib]DFVE[4Pal]LLEQGPSSGAPPPS-NH2) | 744 | 0.0319 | 435
3 | CC[C@H](C)[C@H](NC(=O)[C@H](CO)NC(=O)[C@H](Cc1ccc(O)cc1)NC(=O)[C@H](CC(=O)O)NC(=O)[C@H](CO)NC(=O)[C@@H](NC(=O)[C@H](CC(C)C)NC(=O)[C@@H](NC(=O)CNC(=O)[C@H](CCC(=O)O)NC(=O)[C@@H](C)NC(=O)[C@@H](N)Cc1ccc(O)cc1)[C@@H](C)O)[C@@H](C)CC)C(=O)N[C@@H](CC(C)C)C(=O)N[C@@H](CC(C)C)C(=O)N[C@@H](CC(=O)O)C(=O)N[C@@H](CCCCN)C(=O)N[C@@H](CCCCNC(=O)COCCOCCNC(=O)COCCOCCNC(=O)CC[C@H](NC(=O)CCCCCCCCCCCCCCCCC(=O)O)C(=O)O)C(=O)N[C@@H](C)C(=O)N[C@@H](CCC(N)=O)C(=O)NC(C)(C)C(=O)N[C@@H](CC(=O)O)C(=O)N[C@@H](Cc1ccccc1)C(=O)N[C@H](C(=O)N[C@@H](CC(N)=O)C(=O)N[C@@H](Cc1c[nH]c2ccccc12)C(=O)N[C@@H](CC(C)C)C(=O)N[C@@H](CC(C)C)C(=O)N[C@@H](C)C(=O)N[C@@H](CCC(N)=O)C(=O)NCC(=O)N1CCC[C@H]1C(=O)N[C@@H](CO)C(=O)N[C@@H](CO)C(=O)NCC(=O)N[C@@H](C)C(=O)N1CCC[C@H]1C(=O)N1CCC[C@H]1C(=O)N1CCC[C@H]1C(=O)N[C@@H](CO)C(N)=O)C(C)C [Example 32] (H-Y[dA]EGTLISDYSILLDKK([AEEA-AEEA-γGlu-C18 diacid])AQ[Aib]DFVNWLLAQGPSSGAPPPS-NH2) | 85.2 | 0.0343 | > 959
4 | CC[C@H](C)[C@H](NC(=O)[C@H](CO)NC(=O)[C@H](Cc1ccc(O)cc1)NC(=O)[C@H](CC(=O)O)NC(=O)[C@H](CO)NC(=O)[C@@H](NC(=O)[C@](C)(Cc1ccccc1)NC(=O)[C@@H](NC(=O)CNC(=O)[C@H](CCC(=O)O)NC(=O)C(C)(C)NC(=O)[C@@H](N)Cc1ccc(O)cc1)[C@@H](C)O)[C@@H](C)CC)C(=O)N[C@@](C)(CC(C)C)C(=O)N[C@@H](CC(C)C)C(=O)N[C@@H](CC(=O)O)C(=O)N[C@@H](CCCCN)C(=O)N[C@@H](CCCCNC(=O)COCCOCCNC(=O)COCCOCCNC(=O)CC[C@H](NC(=O)CCCCCCCCCCCCCCCCCCC(=O)O)C(=O)O)C(=O)N[C@@H](Cc1c[nH]cn1)C(=O)N[C@@H](CCC(N)=O)C(=O)NC(C)(C)C(=O)N[C@@H](CCC(=O)O)C(=O)N[C@@H](Cc1ccccc1)C(=O)N[C@H](C(=O)N[C@@H](CCC(=O)O)C(=O)N[C@@H](Cc1ccncc1)C(=O)N[C@@H](CC(C)C)C(=O)N[C@@H](CC(C)C)C(=O)N[C@@H](C)C(=O)N[C@H](C(=O)NCC(=O)N1CCC[C@H]1C(=O)N[C@@H](CO)C(=O)N[C@@H](CO)C(=O)NCC(=O)N[C@@H](C)C(=O)N1CCC[C@H]1C(=O)N1CCC[C@H]1C(=O)N1CCC[C@H]1C(=O)N[C@@H](CO)C(N)=O)[C@@H](C)O)C(C)C [Example 61] (H-Y[Aib]EGT[αMeF]ISDYSI[αMeL]LDKK([AEEA-AEEA-γGlu-C20 diacid])HQ[Aib]EFVE[4Pal]LLATGPSSGAPPPS-NH2) | 135 | 0.0665 | 80.4
5 | CC[C@H](C)[C@H](NC(=O)[C@H](CO)NC(=O)[C@H](Cc1ccc(O)cc1)NC(=O)[C@H](CC(=O)O)NC(=O)[C@H](CO)NC(=O)[C@@H](NC(=O)[C@](C)(Cc1ccccc1)NC(=O)[C@@H](NC(=O)CNC(=O)[C@H](CCC(=O)O)NC(=O)C(C)(C)NC(=O)[C@@H](N)Cc1ccc(O)cc1)[C@@H](C)O)[C@@H](C)CC)C(=O)N[C@@](C)(CC(C)C)C(=O)N[C@@H](CC(C)C)C(=O)N[C@@H](CC(=O)O)C(=O)N[C@@H](CCCCN)C(=O)N[C@@H](CCCCNC(=O)COCCOCCNC(=O)COCCOCCNC(=O)CC[C@H](NC(=O)CCCCCCCCCCCCCCCCCCC(=O)O)C(=O)O)C(=O)N[C@@H](Cc1c[nH]cn1)C(=O)N[C@@H](CCC(N)=O)C(=O)NC(C)(C)C(=O)N[C@@H](CC(=O)O)C(=O)N[C@@H](Cc1ccccc1)C(=O)N[C@H](C(=O)N[C@@H](CCC(=O)O)C(=O)N[C@@H](Cc1ccncc1)C(=O)N[C@@H](CC(C)C)C(=O)N[C@@H](CC(C)C)C(=O)N[C@@H](C)C(=O)NCC(=O)NCC(=O)N1CCC[C@H]1C(=O)N[C@@H](CO)C(=O)N[C@@H](CO)C(=O)NCC(=O)N[C@@H](C)C(=O)N1CCC[C@H]1C(=O)N1CCC[C@H]1C(=O)N1CCC[C@H]1C(=O)N[C@@H](CO)C(N)=O)C(C)C [Example 50] (H-Y[Aib]EGT[αMeF]ISDYSI[αMeL]LDKK([AEEA-AEEA-γGlu-C20 diacid])HQ[Aib]DFVE[4Pal]LLAGGPSSGAPPPS-NH2) | 34.9 | 0.0501 | 23.4
